This is an account of results in US12145920B2, “Lanthionine c-like protein 2 ligands, cells prepared therewith, and therapies using same” (NImmune Biopharma, Inc., priority 2019, dated 2024).

One test concerns the target T1, LANCL2 protein (Homo sapiens, UniProt Q9NS86).
T1 construct: made in house; host or cells: Pichia pastoris
T1 sequence (Q9NS86 1-450): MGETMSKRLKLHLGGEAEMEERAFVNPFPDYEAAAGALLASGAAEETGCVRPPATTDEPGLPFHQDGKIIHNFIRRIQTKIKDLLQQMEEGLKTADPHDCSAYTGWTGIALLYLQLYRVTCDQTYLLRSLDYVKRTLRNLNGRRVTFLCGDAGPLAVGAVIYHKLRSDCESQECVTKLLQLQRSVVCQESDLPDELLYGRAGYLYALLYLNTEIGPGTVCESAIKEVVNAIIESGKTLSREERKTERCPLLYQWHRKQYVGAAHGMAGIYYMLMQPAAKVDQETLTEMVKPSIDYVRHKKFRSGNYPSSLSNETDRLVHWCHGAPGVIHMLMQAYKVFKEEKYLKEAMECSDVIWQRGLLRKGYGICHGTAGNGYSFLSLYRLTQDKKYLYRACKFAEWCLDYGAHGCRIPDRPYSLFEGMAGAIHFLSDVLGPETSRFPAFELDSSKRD
Briefly: Surface plasmon resonance binding to LANCL2 (Biacore T200). The note with it: SPR, immobilized LANCL2, analyte 0-40 μM. As for the experimental part: LANCL2 production and purification. LANCL2 was cloned into E. coli, amplified and transfected in Pichia pastoris. P. pastoris was plated onto adenine selective media. Stable transfected colonies were selected and grown within YPD broth at 30° C. for 24 hours, 240 RPM shaking. Starter culture was used to inoculate base media (1% yeast extract, 2% peptone, 1% sorbitol, 2% yeast nitrogen base) containing biotin and buffered with potassium phosphate. Inoculated base media was incubated for 48 hours at 30° C., 240 RPM. P. pastoris was then pelleted by centrifugation and resuspended in expression media (1% sorbitol, 2% yeast nitrogen base) containing biotin and buffered with potassium phosphate. Culture was induced daily for protein production through addition of methanol and incubated for a total of 4 days at 28° C., 240 RPM. After incubation, cells were pelleted by centrifugation and lysed by sonication. Recombinant LANCL2 protein was purified by fast protein liquid chromatography (AktaPrime) using immobilized metal affinity chromatography. Fractions of protein were eluted in 1 mL aliquots and evaluated for LANCL2 content.
Surface plasmon resonance. A Biacore T200 was used to evaluate binding to the LANCL2 protein. Protein was immobilized onto the CMS sensor chip. […] Based on the immobilized response values, theoretical Rmax values were calculated. […]
(In general: In SPR one partner is held on a chip, and binding of the other changes the refractive index at the surface.)

Test [1] deals with LANCL2 deficient CD4+ T cells. Put plainly: Immune effects in CD4+ splenocytes, flow cytometry (LANCL2 deficient). Type of test: cell-based, C57BL/6 mice. The note with it: in the absence of LANCL2, 0.1, 1 and 10 μM. The source says:
Cell culture. Spleens were excised from C57BL/6 mice and assessed in wild-type and LANCL2 deficient states. Spleens were crushed between the frosted ends of microscope slides and filtered to provide a cellular suspension. Red blood cells were lysed through hypotonic lysis. Remaining cells were washed and filtered. CD4+ T cells were enriched within the suspension using magnetic sorting based negative selection. Cells were collected and plated within 96 well plates coated with anti-CD3 and cultured in the presence of BT-63 at 0, 0.1, 1 and 10 micromolar or BT-104A, BT-104B, or BT-104C at 0.1 micromolar for 48 h. During the last 6 h of culture, cells were stimulated with phorbol 12-myristate-13-acetate (PMA) and ionomycin.
Immunological analysis. Cells were collected from 96 well plates and stained with a cocktail of antibodies for immunophenotyping by flow cytometry. Culture supernatant was collected and assayed for cytokine concentrations by cytometric bead array. Data was captured on a BD FACS Celesta and analyzed using FacsDiva.

A further test has as its system influenza A (H1N1). Briefly: Mouse model of influenza A virus infection. Type of test: in vivo, C57BL/6 mice. Here is the method: Mouse model. Eight- to ten-week old wild type C57BL/6 mice were anesthetized by isoflurane inhalation. Mice were infected with influenza A (H1N1) intranasally at a challenge titer of 350 pfu/mouse. Mice were treated daily with BT-63 at a dose of 20 mg/kg orally via gavage. Mice were weighed and scored daily over 12 days. Mice were euthanized at days 12 to measure immune responses by flow cytometry in the lungs.
Flow Cytometry. Lungs will be chopped into small pieces and collected into RPMI/FBS/CaCl2 buffer containing collagenase (300 U/mL) and DNase (50 U/mL) for digestion. Tissues will be digested for 60 to 90 minutes under stirring at 37° C. Resultant cellular suspensions will be filtered through 100 μm strainers, centrifuged (300×g, 8 min), and washed in fresh RPMI. Red blood cells will be lysed by hypotonic lysis and removed by filtration. Cells will be washed and plated for flow cytometry staining. Cells will be labeled with mixtures of extracellular (CD45, CD3, CD4, CD8, CD19, NK1.1, CD25, F4/80, CD11b, CD11c, Gr1, CX3CR1, CD64, SiglecF, Ly6C) and intracellular (Tbet, RORγT, FOXP3, IFNγ, IL6, IL10, IFNb) antibodies in a sequential live staining in 96-well plates. Data will be acquired using a FACS Celesta flow cytometer with FACSDiva software.

[2] abbreviates: lung, day 12 post-infection, 20 mg/kg.
Setting [3] is: lungs, day 12 post-infection, 20 mg/kg.

As a reminder, the Kd is the free concentration of one partner at which half of the binding sites on the other are occupied at equilibrium, for simple one-to-one binding.

In the case of `O=C(CN1CCN(C(=O)c2cccc(-c3nc4ccccc4[nH]3)n2)CC1)c1ccccc1` [BT-63, 2-(4-(6-(1H-benzo[d]imidazol-2-yl)picolinoyl)piperazin-1-yl)-1-phenylethanone], the Kd on LANCL2 protein was found to be 2740 nM. In test [1], the “effects on IFNγ+, TNFa+ and IL10+ FOXP3+ CD4+ T cells” value is given as “lost”. In addition, the “increase in survival compared to vehicle” value in the test with influenza A (H1N1) (12 days post-infection, 20 mg/kg oral daily) is “over 50%”. Also, in the test with influenza A (H1N1) (day 3 through day 12 post-infection, 20 mg/kg oral vs vehicle), the disease activity index entry is given as “significantly reduces”. In addition, in the test with influenza A (H1N1) (setting [2]), the “IL10+ CD8+ T cells” value was “increases” and the alveolar macrophages entry is listed as “increases”. In addition, in the test with influenza A (H1N1) (setting [3]), the “proportions of TNFa+ CD4+ T cells” value was “decreased” and the proportions of neutrophils entry is “decreased”.
